Measured values taken from PubChem BioAssay AID180 (DTP/NCI, 2004).
Where “and” joins values, the source holds several entries; their conditions need not be identical. Equal entries are not always repeated.

Test system: BDF1 mice, Adenocarcinoma 755 s.c., tumor weight T/C
Assay: NCI In Vivo Anticancer Drug Screen. Data for tumor model Adenocarcinoma 755 (subcutaneous) in B6D2F1 (BDF1) mice
Conditions: endpoint: mean tumor weight, higher = larger tumour
Procedure, shortened: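 In vivo antitumor screen on a transplantable tumor line. Result equals the measure in compound-treated animals divided by the same measure in vehicle controls.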

Structure (SMILES): C[C@]12C[C@H](O)[C@H]3[C@@H](CCC4=CC(=O)CC[C@@]43C)[C@@H]1CC[C@@H]2C(=O)CO
- T/C (dose: 10.0 mg/kg/injection, schedule: Q01DX011 (ip), vehicle: steriod suspending solution): 110 % of control
- T/C (dose: 10.0 mg/kg/injection, schedule: Q01DX011 (sc), vehicle: steriod suspending solution): 79 % of control
- T/C (dose: 20.0 mg/kg/injection, schedule: Q01DX011 (ip), vehicle: steriod suspending solution): 103 % of control
- T/C (dose: 20.0 mg/kg/injection, schedule: Q01DX011 (sc), vehicle: steriod suspending solution): 84 % of control
- T/C (dose: 40.0 mg/kg/injection, schedule: Q01DX011 (im), vehicle: steriod suspending solution): 67 % of control
- T/C (dose: 40.0 mg/kg/injection, schedule: Q01DX011 (ip), vehicle: steriod suspending solution): 81 % of control
- T/C (dose: 40.0 mg/kg/injection, schedule: Q01DX011 (iv), vehicle: steriod suspending solution): 87 % of control
- T/C (dose: 40.0 mg/kg/injection, schedule: Q01DX011 (sc), vehicle: steriod suspending solution): 64 % of control
- T/C (dose: 50.0 mg/kg/injection, schedule: Q#A X022 (sc), vehicle: steriod suspending solution): 20 % of control
- T/C (dose: 80.0 mg/kg/injection, schedule: Q01DX011 (im), vehicle: steriod suspending solution): 49 % of control
- T/C (dose: 80.0 mg/kg/injection, schedule: Q01DX011 (ip), vehicle: steriod suspending solution): 95 % of control
- T/C (dose: 80.0 mg/kg/injection, schedule: Q01DX011 (iv), vehicle: steriod suspending solution): 64 % of control
- T/C (dose: 80.0 mg/kg/injection, schedule: Q01DX011 (oral), vehicle: steriod suspending solution): 58 % of control
- T/C (dose: 80.0 mg/kg/injection, schedule: Q01DX011 (sc), vehicle: steriod suspending solution): 51 % of control
- T/C (dose: 100.0 mg/kg/injection, schedule: Q01DX011 (oral), vehicle: steriod suspending solution): 38 % of control
- T/C (dose: 100.0 mg/kg/injection, schedule: Q#A X022 (sc), vehicle: steriod suspending solution): 8 % of control
- T/C (dose: 150.0 mg/kg/injection, schedule: Q03DX004 (sc), vehicle: steriod suspending solution): 51 % of control
- T/C (dose: 160.0 mg/kg/injection, schedule: Q01DX011 (im), vehicle: steriod suspending solution): 30 % of control
- T/C (dose: 160.0 mg/kg/injection, schedule: Q01DX011 (ip), vehicle: steriod suspending solution): 72 % of control
- T/C (dose: 160.0 mg/kg/injection, schedule: Q01DX011 (iv), vehicle: steriod suspending solution): 42 % of control
- T/C (dose: 160.0 mg/kg/injection, schedule: Q01DX011 (sc), vehicle: steriod suspending solution): 31 % of control
- T/C (dose: 175.0 mg/kg/injection, schedule: Q07DX002 (sc), vehicle: steriod suspending solution): 104 % of control
- T/C (dose: 300.0 mg/kg/injection, schedule: Q03DX004 (sc), vehicle: steriod suspending solution): 24 % of control
- T/C (dose: 320.0 mg/kg/injection, schedule: Q01DX011 (im), vehicle: steriod suspending solution): 22 % of control
- T/C (dose: 320.0 mg/kg/injection, schedule: Q01DX011 (ip), vehicle: steriod suspending solution): 42 % of control
- T/C (dose: 320.0 mg/kg/injection, schedule: Q01DX011 (oral), vehicle: steriod suspending solution): 38 % of control
- T/C (dose: 320.0 mg/kg/injection, schedule: Q01DX011 (sc), vehicle: steriod suspending solution): 16 % of control
- T/C (dose: 350.0 mg/kg/injection, schedule: Q07DX002 (sc), vehicle: steriod suspending solution): 58 % of control
- T/C (dose: 400.0 mg/kg/injection, schedule: Q01DX011 (oral), vehicle: steriod suspending solution): 22 % of control
- T/C (dose: 600.0 mg/kg/injection, schedule: Q03DX004 (sc), vehicle: steriod suspending solution): 9 % of control
- T/C (dose: 640.0 mg/kg/injection, schedule: Q01DX011 (oral), vehicle: steriod suspending solution): 17 % of control and 18 % of control
- T/C (dose: 700.0 mg/kg/injection, schedule: Q07DX002 (sc), vehicle: steriod suspending solution): 20 % of control
- T/C (dose: 1200.0 mg/kg/injection, schedule: Q03DX004 (sc), vehicle: steriod suspending solution): 5 % of control
- T/C (dose: 1400.0 mg/kg/injection, schedule: Q07DX002 (sc), vehicle: steriod suspending solution): 16 % of control

Structure (SMILES): NC(=O)CF
- T/C (dose: 2.5 mg/kg/injection, schedule: Q01DX011 (ip), vehicle: other): 72 % of control

Structure (SMILES): Nc1nc2n[nH]nc2c(=O)[nH]1
- T/C (dose: 11.18 mg/kg/injection, schedule: Q01DX011 (ip), vehicle: carboxymethylcellulose (CMC)): 80 % of control
- T/C (dose: 12.5 mg/kg/injection, schedule: Q01DX011 (ip), vehicle: other): 62 % of control and 80 % of control
- T/C (dose: 13.55 mg/kg/injection, schedule: Q01DX011 (ip), vehicle: carboxymethylcellulose (CMC)): 85 % of control
- T/C (dose: 17.88 mg/kg/injection, schedule: Q01DX011 (ip), vehicle: carboxymethylcellulose (CMC)): 98 % of control
- T/C (dose: 22.35 mg/kg/injection, schedule: Q01DX011 (ip), vehicle: carboxymethylcellulose (CMC)): 70 % of control and 76 % of control
- T/C (dose: 27.1 mg/kg/injection, schedule: Q01DX011 (ip), vehicle: carboxymethylcellulose (CMC)): 80 % of control
- T/C (dose: 29.8 mg/kg/injection, schedule: Q01DX011 (ip), vehicle: carboxymethylcellulose (CMC)): 59 % of control
- T/C (dose: 37.5 mg/kg/injection, schedule: Q01DX011 (sc), vehicle: carboxymethylcellulose (CMC)): 11 % of control
- T/C (dose: 44.7 mg/kg/injection, schedule: Q01DX011 (ip), vehicle: carboxymethylcellulose (CMC)): 17 % of control and 33 % of control
- T/C (dose: 75.0 mg/kg/injection, schedule: Q01DX011 (sc), vehicle: carboxymethylcellulose (CMC)): 5 % of control
- T/C (dose: 89.4 mg/kg/injection, schedule: Q01DX011 (ip), vehicle: carboxymethylcellulose (CMC)): 4 % of control and 6 % of control
- T/C (dose: 108.4 mg/kg/injection, schedule: Q01DX011 (ip), vehicle: carboxymethylcellulose (CMC)): 3 % of control and 4 % of control

Structure (SMILES): CN(C)CCO
- T/C (dose: 100.0 mg/kg/injection, schedule: Q01DX011 (ip), vehicle: other): 97 % of control

Structure (SMILES): CCCCOP(=O)(OCCCC)OCC1OC(n2cnc3c(=S)nc[nH]c32)C(O)C1O (stereo unspecified)
- T/C (dose: 31.0 mg/kg/injection, schedule: Q01DX011 (ip), vehicle: methylcellulose (MC)): 100 % of control
- T/C (dose: 62.0 mg/kg/injection, schedule: Q01DX011 (ip), vehicle: methylcellulose (MC)): 65 % of control
- T/C (dose: 125.0 mg/kg/injection, schedule: Q01DX011 (ip), vehicle: methylcellulose (MC)): 46 % of control

Structure (SMILES): OB(O)O
- T/C (dose: 500.0 mg/kg/injection, schedule: Q#A X022 (oral), vehicle: water): 39 % of control and 45 % of control
- T/C (dose: 750.0 mg/kg/injection, schedule: Q#A X022 (oral), vehicle: water): 16 % of control
- T/C (dose: 1000.0 mg/kg/injection, schedule: Q#A X022 (oral), vehicle: water): 9 % of control

Structure (SMILES): CCCCCCCCn1cnc2c(=S)nc[nH]c21
- T/C (dose: 125.0 mg/kg/injection, schedule: Q01DX011 (ip), vehicle: carboxymethylcellulose (CMC)): 84 % of control
- T/C (dose: 250.0 mg/kg/injection, schedule: Q01DX011 (ip), vehicle: carboxymethylcellulose (CMC)): 67 % of control
- T/C (dose: 500.0 mg/kg/injection, schedule: Q01DX011 (ip), vehicle: carboxymethylcellulose (CMC)): 102 % of control

Structure (SMILES): CCCNc1ncnc2c1cnn2C
- T/C (dose: 3.12 mg/kg/injection, schedule: Q01DX011 (ip), vehicle: methylcellulose (MC)): 84 % of control
- T/C (dose: 3.12 mg/kg/injection, schedule: Q01DX011 (ip), vehicle: saline): 101 % of control
- T/C (dose: 6.25 mg/kg/injection, schedule: Q01DX011 (ip), vehicle: methylcellulose (MC)): 80 % of control
- T/C (dose: 6.25 mg/kg/injection, schedule: Q01DX011 (ip), vehicle: saline): 86 % of control
- T/C (dose: 12.5 mg/kg/injection, schedule: Q01DX011 (ip), vehicle: methylcellulose (MC)): 32 % of control
- T/C (dose: 12.5 mg/kg/injection, schedule: Q01DX011 (ip), vehicle: saline): 19 % of control
- T/C (dose: 25.0 mg/kg/injection, schedule: Q01DX011 (ip), vehicle: saline): 8 % of control

Structure (SMILES): O=c1[nH]cnc2c1ncn2C1CCCC1
- T/C (dose: 18.1 mg/kg/injection, schedule: Q01DX011 (ip), vehicle: carboxymethylcellulose (CMC)): 81 % of control
- T/C (dose: 18.12 mg/kg/injection, schedule: Q01DX011 (ip), vehicle: carboxymethylcellulose (CMC)): 124 % of control
- T/C (dose: 36.2 mg/kg/injection, schedule: Q01DX011 (ip), vehicle: carboxymethylcellulose (CMC)): 78 % of control
- T/C (dose: 36.25 mg/kg/injection, schedule: Q01DX011 (ip), vehicle: carboxymethylcellulose (CMC)): 90 % of control
- T/C (dose: 56.0 mg/kg/injection, schedule: Q01DX001 (ip), vehicle: carboxymethylcellulose (CMC)): 70 % of control
- T/C (dose: 72.5 mg/kg/injection, schedule: Q01DX011 (ip), vehicle: carboxymethylcellulose (CMC)): 100 % of control and 87 % of control
- T/C (dose: 112.0 mg/kg/injection, schedule: Q01DX001 (ip), vehicle: carboxymethylcellulose (CMC)): 70 % of control
- T/C (dose: 145.0 mg/kg/injection, schedule: Q01DX011 (ip), vehicle: carboxymethylcellulose (CMC)): 75 % of control and 85 % of control
- T/C (dose: 225.0 mg/kg/injection, schedule: Q01DX001 (ip), vehicle: carboxymethylcellulose (CMC)): 37 % of control

Structure (SMILES): CC(C)COC(=O)C1(N)CCCC1
- T/C (dose: 25.0 mg/kg/injection, schedule: Q01DX011 (ip), vehicle: carboxymethylcellulose (CMC)): 98 % of control
- T/C (dose: 50.0 mg/kg/injection, schedule: Q01DX011 (ip), vehicle: carboxymethylcellulose (CMC)): 33 % of control
- T/C (dose: 100.0 mg/kg/injection, schedule: Q01DX011 (ip), vehicle: carboxymethylcellulose (CMC)): 12 % of control
